SMILES strings stand for the structures. Like-named read-outs stand apart in the source and are kept apart here.

In experiment [1] the target is T1, Recombinant His-tagged NAMPT (Homo sapiens, UniProt P43490).
T1 construct: His; host or cells: E. coli
The experiment can be described thus: Biochemical inhibition assay: NAMPT enzymatic reaction, NMN quantified by mass spectrometry. To be noted: 33 nM NAMPT, 1 μM NAM, 100 μM PRPP, 30 minutes at room temperature, read-out: Biochem IC50. Put shortly:
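Reaction 30 min at room temperature with 1 μM NAM, 100 μM PRPP, 2.5 mM ATP (final), quenched with formic acid. NMN quantified by RapidFire electrospray MS, normalized to L-cystathionine; IC50 from percent inhibition versus DMSO.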

For experiment [2], the system named is A2780 cells. The experiment can be described thus: In-vitro cell proliferation assay (SRB, 72 hours). The format is cell-based. To be noted: sulforhodamine B (SRB) assay. An outline of the steps:
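Viable cells measured by TCA fixation and SRB staining, absorbance 570 nm; % inhibition vs DMSO control after media-only background subtraction, interpolated between two bracketing concentrations.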
(In general: In SRB staining, fixed cells bind dye roughly in proportion to their protein.)

T1 sequence (P43490 whole entry): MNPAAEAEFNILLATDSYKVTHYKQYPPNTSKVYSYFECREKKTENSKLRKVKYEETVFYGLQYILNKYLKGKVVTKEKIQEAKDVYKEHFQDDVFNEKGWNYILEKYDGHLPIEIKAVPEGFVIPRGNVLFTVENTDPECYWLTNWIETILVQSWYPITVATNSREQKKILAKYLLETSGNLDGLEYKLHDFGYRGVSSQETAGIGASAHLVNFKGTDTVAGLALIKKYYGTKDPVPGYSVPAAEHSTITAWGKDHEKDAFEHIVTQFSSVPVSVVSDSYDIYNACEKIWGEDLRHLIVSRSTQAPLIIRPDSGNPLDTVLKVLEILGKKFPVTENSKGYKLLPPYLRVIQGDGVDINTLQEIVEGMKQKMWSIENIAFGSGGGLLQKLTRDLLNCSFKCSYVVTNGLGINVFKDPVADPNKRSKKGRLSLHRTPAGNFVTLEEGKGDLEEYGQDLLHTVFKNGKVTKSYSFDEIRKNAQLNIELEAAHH

Usually IC50 stands for the concentration at which inhibition is half-maximal. For `O=C(NCCCCC1CCN(C(=O)c2cc3cc(F)ccc3[nH]2)CC1)c1cc2cnccc2[nH]1` [N-(4-{1-[(5-fluoro-1H-indol-2-yl)carbonyl]piperidin-4-yl}butyl)-1H-pyrrolo[3,2-c]pyridine-2-carboxamide], the IC50 was 97.1 nM in experiment [1] (2.5 mM ATP) and 100 to 1000 nM in experiment [2] (Homo sapiens).
The like results for `COc1ncc(Cl)cc1C(=O)N1CCC(CCCCNC(=O)c2ccc3nccn3c2)CC1` [N-(4-{1-[(5-chloro-2-methoxypyridin-3-yl)carbonyl]piperidin-4-yl}butyl)imidazo[1,2-a]pyridine-6-carboxamide] were, in that order, 12.3 nM and 3.3 nM.
Taken in the same sequence, the figures for `O=C(NCCCCC1CCN(C(=O)c2ccccc2OC(F)(F)F)CC1)c1cc2ccncc2s1` [N-[4-(1-{[2-(trifluoromethoxy)phenyl]carbonyl}piperidin-4-yl)butyl]thieno[2,3-c]pyridine-2-carboxamide] were 10.4 nM and 3.1 nM.
Regarding `COc1cccc(OC)c1C(=O)N1CCC(CCCCNC(=O)c2cc3ccncc3s2)CC1` [N-(4-{1-[(2,6-dimethoxyphenyl)carbonyl]piperidin-4-yl}butyl)thieno[2,3-c]pyridine-2-carboxamide], the IC50 in experiment [1] (2.5 mM ATP) worked out at 5.6 nM; in experiment [2] (Homo sapiens) it was 1.2 nM.
Turning to `Cc1nc(CC(=O)N2CCC(CCCCNC(=O)c3ccc4nccn4c3)CC2)cs1` [N-(4-{1-[2-(2-methyl-1,3-thiazol-4-yl)acetyl]piperidin-4-yl}butyl)imidazo[1,2-a]pyridine-6-carboxamide], the IC50 in experiment [1] (2.5 mM ATP) amounted to 18.9 nM; in experiment [2] (Homo sapiens) it was 28 nM.
Taken in the same sequence, the figures for `O=C(NCCCCC1CCN(C(=O)c2cc(Cl)cc(Cl)c2)CC1)c1ccc2nccn2c1` [N-(4-{1-[(3,5-dichlorophenyl)carbonyl]piperidin-4-yl}butyl)imidazo[1,2-a]pyridine-6-carboxamide] were 61.6 nM and 32.9 nM.
The like results for `Cc1ccc(C(=O)N2CCC(CCCCNC(=O)c3cc4cnccc4[nH]3)CC2)cn1` [N-(4-{1-[(6-methylpyridin-3-yl)carbonyl]piperidin-4-yl}butyl)-1H-pyrrolo[3,2-c]pyridine-2-carboxamide] were, in that order, 65.1 nM and 21.3 nM.
Taken in the same sequence, the figures for `O=C(NCCCCC1CCN(C(=O)c2ccc(F)c(F)c2)CC1)c1cc2ccncc2s1` [N-(4-{1-[(3,4-difluorophenyl)carbonyl]piperidin-4-yl}butyl)thieno[2,3-c]pyridine-2-carboxamide] were 22.9 nM and 100 to 1000 nM.
For the compound `O=C(NCCCCC1CCN(S(=O)(=O)c2cccc(OC(F)(F)F)c2)CC1)c1cc2cnccc2[nH]1` [N-[4-(1-{[3-(trifluoromethoxy)benzene]sulfonyl}piperidin-4-yl)butyl]-1H-pyrrolo[3,2-c]pyridine-2-carboxamide], the IC50 amounted to 77.8 nM in experiment [1] ([…] ATP) and 18.7 nM in experiment [2].
Regarding `Cc1cccc(C(=O)N2CCC(CCCCNC(=O)c3cc4cnccc4[nH]3)CC2)c1F` [N-(4-{1-[(2-fluoro-3-methylphenyl)carbonyl]piperidin-4-yl}butyl)-1H-pyrrolo[3,2-c]pyridine-2-carboxamide], the IC50 in experiment [1] (2.5 mM ATP) is 47.5 nM; in experiment [2] (Homo sapiens), 6.9 nM.
Take `COc1cccc(C(=O)N2CCC(CCCCNC(=O)c3cc4ccncc4s3)CC2)c1OC` [N-(4-{1-[(2,3-dimethoxyphenyl)carbonyl]piperidin-4-yl}butyl)thieno[2,3-c]pyridine-2-carboxamide]: the IC50 in experiment [1] (2.5 mM ATP) was determined as 16.9 nM; in experiment [2] (Homo sapiens), 5.6 nM.
Taken in the same sequence, the figures for `O=C(NCCC1CCN(C(=O)c2ccccc2)CC1)c1cc2cnccc2[nH]1` [N-[2-(1-benzoylpiperidin-4-yl)ethyl]-1H-pyrrolo[3,2-c]pyridine-2-carboxamide] were 10000 nM and 20000 nM.
The like results for `O=C(NCCCCC1CCN(C(=O)c2ccc3c(c2)OCO3)CC1)c1cc2cnccc2[nH]1` [N-(4-{1-[(2H-1,3-benzodioxol-5-yl)carbonyl]piperidin-4-yl}butyl)-1H-pyrrolo[3,2-c]pyridine-2-carboxamide] were, in that order, 78.3 nM and 14 nM.
The like results for `COc1cc(Cl)ccc1C(=O)N1CCC(CCCCNC(=O)c2ccc3nccn3c2)CC1` [N-(4-{1-[(4-chloro-2-methoxyphenyl)carbonyl]piperidin-4-yl}butyl)imidazo[1,2-a]pyridine-6-carboxamide] were, in that order, 80.6 nM and 27 nM.
For `O=C(NCCCCC1CCN(C(=O)c2cc3cnccc3[nH]2)CC1)c1cc2ccncc2s1` [N-{4-[1-({1H-pyrrolo[3,2-c]pyridin-2-yl}carbonyl)piperidin-4-yl]butyl}thieno[2,3-c]pyridine-2-carboxamide], the IC50 was found to be 6.9 nM in experiment [1] (2.5 mM ATP) and 13.7 nM in experiment [2] (Homo sapiens).
Regarding `Cc1nc(C(=O)N2CCC(CCCCNC(=O)c3cc4ccncc4s3)CC2)cs1` [N-(4-{1-[(2-methyl-1,3-thiazol-4-yl)carbonyl]piperidin-4-yl}butyl)thieno[2,3-c]pyridine-2-carboxamide], the IC50 in experiment [1] (2.5 mM ATP) is 22.4 nM; in experiment [2] (Homo sapiens), 100 to 1000 nM.
The like results for `O=C(NCCCCC1CCN(C(=O)c2ccc(Cl)c(Cl)c2)CC1)c1cc2cnccc2[nH]1` [N-(4-{1-[(3,4-dichlorophenyl)carbonyl]piperidin-4-yl}butyl)-1H-pyrrolo[3,2-c]pyridine-2-carboxamide] were, in that order, 93 nM and 58 nM.
Take `O=C(NCCCCC1CCN(C(=O)c2cc(Cl)ccc2Cl)CC1)c1cc2cnccc2[nH]1` [N-(4-{1-[(2,5-dichlorophenyl)carbonyl]piperidin-4-yl}butyl)-1H-pyrrolo[3,2-c]pyridine-2-carboxamide]: the IC50 was found to be 51.3 nM in experiment [1] (2.5 mM ATP) and 6.1 nM in experiment [2] (Homo sapiens).
`O=C(NCCCCC1CCN(C(=O)c2csc(-c3ccccc3)n2)CC1)c1cc2ccncc2s1` [N-(4-{1-[(2-phenyl-1,3-thiazol-4-yl)carbonyl]piperidin-4-yl}butyl)thieno[2,3-c]pyridine-2-carboxamide]: the IC50 in experiment [1] (2.5 mM ATP) stood at 13.1 nM; in experiment [2] (Homo sapiens), 76.2 nM.
Taken in the same sequence, the figures for `O=C(NCCCCC1CCN(C(=O)c2cc3ccccc3[nH]2)CC1)c1cc2ccncc2s1` [N-(4-{1-[(1H-indol-2-yl)carbonyl]piperidin-4-yl}butyl)thieno[2,3-c]pyridine-2-carboxamide] were 33.5 nM and 100 to 1000 nM.
For the compound `COc1ccc(C(=O)N2CCC(CCCCNC(=O)c3ccc4nccn4c3)CC2)cc1` [N-(4-{1-[(4-methoxyphenyl)carbonyl]piperidin-4-yl}butyl)imidazo[1,2-a]pyridine-6-carboxamide], the IC50 in experiment [1] (2.5 mM ATP) turned out to be 23.2 nM; in experiment [2] (Homo sapiens), 57.6 nM.
Taken in the same sequence, the figures for `Cn1ccnc1C(=O)N1CCC(CCCCNC(=O)c2cc3cnccc3[nH]2)CC1` [N-(4-{1-[(1-methyl-1H-imidazol-2-yl)carbonyl]piperidin-4-yl}butyl)-1H-pyrrolo[3,2-c]pyridine-2-carboxamide] were 76.5 nM and 23.6 nM.
The like results for `O=C(NCCCCC1CCN(C(=O)c2ccc(N3CCOCC3)nc2)CC1)c1cc2ccncc2s1` [N-[4-(1-{[6-(morpholin-4-yl)pyridin-3-yl]carbonyl}piperidin-4-yl)butyl]thieno[2,3-c]pyridine-2-carboxamide] were, in that order, 30.1 nM and 13.1 nM.
The like results for `O=C(NCCCCC1CCN(C(=O)c2cc(Cl)cc(Cl)c2)CC1)c1cc2ccncc2s1` [N-(4-{1-[(3,5-dichlorophenyl)carbonyl]piperidin-4-yl}butyl)thieno[2,3-c]pyridine-2-carboxamide] were, in that order, 30 nM and 51.3 nM.
As for `CC(C)c1ccc(C(=O)N2CCC(CCCCNC(=O)c3cc4ccncc4s3)CC2)nc1` [N-[4-(1-{[5-(propan-2-yl)pyridin-2-yl]carbonyl}piperidin-4-yl)butyl]thieno[2,3-c]pyridine-2-carboxamide], the results for the IC50 in experiment [1] (2.5 mM ATP) and in experiment [2] (Homo sapiens) were 89.8 nM and 100 to 1000 nM, respectively.
The like results for `O=C(NCCCCC1CCN(S(=O)(=O)c2cccnc2)CC1)c1cc2cnccc2[nH]1` [N-{4-[1-(pyridine-3-sulfonyl)piperidin-4-yl]butyl}-1H-pyrrolo[3,2-c]pyridine-2-carboxamide] were, in that order, 16.1 nM and 13.9 nM.
The like results for `Cc1ccc(C(=O)N2CCC(CCCCNC(=O)c3ccc4nccn4c3)CC2)cn1` [N-(4-{1-[(6-methylpyridin-3-yl)carbonyl]piperidin-4-yl}butyl)imidazo[1,2-a]pyridine-6-carboxamide] were, in that order, 23.8 nM and 73.6 nM.
The like results for `O=C(NCCCCC1CCN(C(=O)c2ccc(F)cc2F)CC1)c1ccc2nccn2c1` [N-(4-{1-[(2,4-difluorophenyl)carbonyl]piperidin-4-yl}butyl)imidazo[1,2-a]pyridine-6-carboxamide] were, in that order, 7.1 nM and 25.6 nM.
Turning to `O=C(NCCCCC1CCN(C(=O)c2ccccc2F)CC1)c1cc2ccncc2s1` [N-(4-{1-[(2-fluorophenyl)carbonyl]piperidin-4-yl}butyl)thieno[2,3-c]pyridine-2-carboxamide], the IC50 was 8.8 nM in experiment [1] (2.5 mM ATP) and 0.6 nM in experiment [2] (Homo sapiens).
The like results for `O=C(NCCCCC1CCN(C(=O)c2cccc(Cl)c2)CC1)c1ccc2nccn2c1` [N-(4-{1-[(3-chlorophenyl)carbonyl]piperidin-4-yl}butyl)imidazo[1,2-a]pyridine-6-carboxamide] were, in that order, 17.1 nM and 22.3 nM.
The like results for `Cn1cc(CC(=O)N2CCC(CCCCNC(=O)c3ccc4nccn4c3)CC2)c2ccccc21` [N-(4-{1-[2-(1-methyl-1H-indol-3-yl)acetyl]piperidin-4-yl}butyl)imidazo[1,2-a]pyridine-6-carboxamide] were, in that order, 29.5 nM and 21.3 nM.
